Legend:
[1] = system: C3-Tag mammary tumors; conditions: mouse, in vivo
[2] = system: C3-Tag mammary tumors; assay: C3-Tag genetically engineered mouse model (GEMM) of triple-negative breast cancer
[3] = system: SUM149 cells; conditions: athymic nude, mouse, in vivo, 5 days
[4] = system: murine intestinal epithelium; assay: Time-course of gut damage after a single treatment in FVB mice; type: in vivo, female FVB mice
Description: It has been previously reported that irinotecan induces apoptosis and reduces the number of mitotic structures in the rat intestinal epithelium (Takasuna 1996). To assess whether Inh9 impacts cell proliferation in the murine intestinal epithelium, we undertook two time-course studies. Four groups of age-, weight- and litter-matched female FVB mice were treated with a single treatment of vehicle, Inh9 (1 mg/kg p.o.), irinotecan (50 mg/kg i.p.) or irinotecan and Inh9. One set of animals were euthanized after 24 hours, and a second set after 120 hours. To assess overall effects on the animals, changes in body weight, spleen mass and hematocrit were measured. In the GI tract, levels of apoptotic cells and proliferative cells were measured and epithelial samples were examined by H&E staining.
Thus, at five days, Inh9 appears to protect this measure of animal health. […] As such, the protection afforded at 24 hours by Inh9 is sufficient to improve subsequent gut epithelial outcomes in mice several days after administration.

[5] = system: gut microbiota; assay: Gut microbiota composition in C3Tag GEMM animals; type: in vivo, C3Tag GEMM mice
Text: Finally, we examined the effects of irinotecan and GUS inhibitor on the composition of the gut microbiota in […] triple-negative breast cancer GEMM animals. […] While the vehicle and Inh9 treatment groups appeared similar by PCoA1 analysis, both the irinotecan and IRI+Inh9 groups were similar to each other and distinct from the non-irinotecan mice (FIG. 22C). However, unlike the xenograft mice, irinotecan induces much smaller changes in the composition of the gut microbiota in these GEMM animals. […] These changes were not as dramatic as those observed with the athymic Sum149 xenograft mice presented above. […] In these GEMM animals, though, no change in Enterobacteriaceae or other Gammaproteobacteria families was observed; thus, the taxa that drive the increases in Proteobacteria are not known in these immune-competent mice.

[6] = system: SUM149 cells; assay: SUM149 triple negative breast cancer xenograft in athymic nude mice
[7] = system: gut microbiota; assay: 16S rRNA metataxonomic analysis of luminal contents, athymic Sum149 xenograft mice; type: in vivo
Description: A metataxonomic analysis was performed of the luminal contents of athymic mice bearing Sum149 triple-negative breast cancer xenograft tumors by sequencing the V3-V4 region of the bacterial 16s rRNA gene. […] Gut microbial diversity is associated with animal and human health, while reduced diversity is associated with disease in both model organisms and humans (REFs). Thus, Inh9 blunts the negative effects of irinotecan on gut microbial diversity in athymic tumor xenograft mice, and is capable of increases species richness in these animals.
At the phylum level, the lumenal contents of vehicle-treated mice contained 50% Bacteroidetes, 42% Firmicutes, and 4% Proteobacteria (FIG. 22B). […] Thus, in immune-deficient mice, Inh9 markedly protects gut microbial composition in athymic mice, increasing diversity and reducing irinotecan-induced increases in Proteobacteria.

[8] = therapeutically-relevant doses; cited from earlier work
[9] = system: gut microbial enzymes; assay: SN-38-G reactivation in fimo samples after treatment of FVB mice; type: in vivo
Description: The FVB mice were treated with irinotecan, the Inh9, or both irinotecan and Inh9, and it was determined how these treatments affected SN-38-G reactivation in fimo samples collected after 24 hours. […] A similar study was conducted in which samples were collected at 120 hours; at this five-day timepoint, no difference was found between the four treatment groups (data not shown).

[10] = system: gut microbial GUS enzymes; conditions: irinotecan alone; cited from earlier work

SMILES: CCc1c2c(nc3ccc(OC(=O)N4CCC(N5CCCCC5)CC4)cc13)-c1cc3c(c(=O)n1C2)COC(=O)[C@]3(O)CC [irinotecan, (S)-4,11-diethyl-3,4,12,14-tetrahydro-4-hydroxy-3,14-dioxo1H-pyrano[3′,4′:6,7]-indolizino[1,2-b]quinolin-9-yl-[1,4′bipiperidine]-1′-carboxylate, reference compound]
- time within which all animals developed diarrhea ([1]; female, C3-Tag (strain of origin FVB/N)): ≤ 14 days
- body weight over the course of the study [1]: consistently lost weight
- colon tissue, H&E staining [1]: almost completely destroyed glandular structure
- number of tumors observed in the animals ([2]; between treatment groups): did not differ
- time until euthanasia was required for all animals ([2]; irinotecan alone, after the initiation of therapy): 28 days
- primary tumor as share of body weight ([2]; single agent): 3%
- primary tumor mass upon sacrifice ([2]; single agent): ~1 g
- mice that developed late-onset, delayed diarrhea [3]: 50%
- time to apoptotic crypt damage in the murine small intestine ([4]; irinotecan): ≤ 24 h
- spleen mass ([4]; single IRI injection, five days): unchanged
- body mass ([4]; single IRI injection, over five days): modest body mass reduction
- proliferative (BrdU+) cells per crypt in ileum, proximal colon and distal colon ([4]; single agent compared to vehicle or Inh9, 120 hours): significantly decreased
- Proteobacteria and Gammaproteobacteria, Verrucomicrobia and Verrocumicrobiae levels ([5]; irinotecan alone or in combination with GUS inhibitor vs no irinotecan): significant increases
- composition of the gut microbiota ([5]; mice with intact immune system): sole driver of changes
- time to early-onset diarrhea ([6]; both irinotecan treatment groups): ≤ 12 h
- time until the entire cohort required euthanasia ([6]; irinotecan alone, following the first treatment): 10 days
- post-sacrifice colon histological examination ([6]; single agent): dramatic irinotecan-induced epithelial damage
- terminal tumor masses ([6]; single agent): significantly reduced
- increase in the levels of Proteobacteria ([7]; irinotecan, athymic xenograft mice): ten-fold increase
- Bacteroidetes in lumenal contents, phylum level ([7]; single agent): 35%
- Firmicutes in lumenal contents, phylum level ([7]; single agent): 16%
- Proteobacteria in lumenal contents, phylum level ([7]; single agent): 46%
- species diversity, Chao1 richness ([7]; single agent): significant drop
- patients who develop diarrhea of all grades [8]: 88%
- patients with life-threatening grade 3-4 diarrhea [8]: 30%
- effects on SN-38-G reactivation by in fimo samples ([9]; samples collected at 120 hours): no longer detected
- SN-38-G processing activity in the mouse cecum (in fimo samples) ([9]; single agent, samples collected after 24 hours): significantly increased
- time to lethal intestinal toxicity [10]: ≤ 10 days

— patent publication US20200010479A1, “INHIBITORS OF MICROBIAL BETA-GLUCURONIDASE ENZYMES AND USES THEREOF” (THE UNIVERSITY OF NORTH CAROLINA AT CHAPEL HILL, priority 2017, published 2020)
